Read-outs that look alike come from different tables or passages of the source.

Experiment [1] addresses T1, EFK2 (Homo sapiens, UniProt O00418).
T1 sequence (O00418 1-725): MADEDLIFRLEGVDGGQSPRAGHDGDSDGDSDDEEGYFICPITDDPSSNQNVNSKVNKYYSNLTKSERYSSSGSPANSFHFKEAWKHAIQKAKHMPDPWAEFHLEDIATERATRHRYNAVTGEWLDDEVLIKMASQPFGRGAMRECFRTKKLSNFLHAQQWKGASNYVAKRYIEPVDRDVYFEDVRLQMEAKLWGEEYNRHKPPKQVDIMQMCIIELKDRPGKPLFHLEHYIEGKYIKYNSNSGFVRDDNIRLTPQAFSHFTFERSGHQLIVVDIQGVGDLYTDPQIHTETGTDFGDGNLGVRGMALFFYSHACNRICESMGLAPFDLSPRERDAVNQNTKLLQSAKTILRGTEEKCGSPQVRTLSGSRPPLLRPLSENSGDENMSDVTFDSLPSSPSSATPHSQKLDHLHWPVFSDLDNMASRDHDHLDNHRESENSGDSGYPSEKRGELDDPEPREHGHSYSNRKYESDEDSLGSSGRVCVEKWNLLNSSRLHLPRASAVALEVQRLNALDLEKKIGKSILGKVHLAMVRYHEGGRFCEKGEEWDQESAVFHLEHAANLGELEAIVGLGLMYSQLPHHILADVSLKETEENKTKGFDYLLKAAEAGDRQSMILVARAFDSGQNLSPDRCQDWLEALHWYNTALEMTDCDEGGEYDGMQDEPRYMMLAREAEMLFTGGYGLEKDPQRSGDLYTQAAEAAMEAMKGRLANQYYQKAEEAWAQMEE
The experiment is described as follows: biochemical. As to conditions: read-out: EFK2 activity as percentage of control without inhibitor. As for the experimental part: (§1) All assays (25.5 μl) were carried out at room temperature (21° C.) and were linear with respect to time and enzyme concentrations under the conditions used. Assays were performed for 30 minutes except assays for LCK and PKB which were performed for 15 minutes using Multidrop Micro reagent dispensers (Thermo Electron Corporation, Waltham, Mass. 02454, USA) in a 96-well format. The concentration of […] [γ-^33P] ATP (800 cpm/pmol) in the assays was one of three concentrations (5, 20 or 50 μM) in order to be at or below Km for ATP for the enzyme. Assays were initiated with MgATP and stopped by addition of 5 μl of 0.5M orthophosphoric acid. Assays were then harvested onto P81 filterplates using a unifilter harvester (PerkinElmer, Boston, Mass. 02118, USA), with a wash buffer of 50 mM orthophosphoric acid. Filterplates were then air dried overnight. 10 μl of Microscint O was added per well prior to counting for radioactivity.
(§2) The following kinases were assayed against the substrates indicated. Aurora B was assayed against the substrate peptide […] (300 μM), ERK8 and MST-2 were both assayed against MBP (0.33 mg/ml). IKKβ was assayed against the substrate peptide […] (300 μM), JNK3 was assayed against 3 μM ATF2[19-96]. MAPKAP-K3 and PKD1 were both assayed against […] (30 μM), MARK3 was assayed against CHKtide ([…]) substrate peptide (300 μM). MNK1 and MNK2 were both assayed against eIF4E protein (0.5 mg/ml). NEK7 was assayed against […] (300 μM), PIM2 was assayed against […] (300 μM), ΔPH PKBβ-S474D was assayed against Crosstide (30 μM), PLK1 was assayed against […] (300 μM). PRK2 was assayed against Long S6 peptide, […] (30 μM), RSK2 was assayed against […] (30 μM), SRC was assayed against cdc2 peptide, […], (300 μM) and SRPK1 was assayed against peptide […] (300 μM). All enzymes were diluted in 50 mM Tris/HCl pH 7.5, 0.1 mM EGTA, 1 mg/ml BSA, 0.1% β-mercaptoethanol buffer and assayed in an incubation containing 50 mM Tris/HCl pH7.5, 0.1 mM EGTA, 0.1% β-mercaptoethanol, CAMK-1 (5-20 mU) diluted in 50 mM Tris/HCl pH 7.5, 0.1 mM EGTA, 1 mg/ml BSA, 0.1% β-mercaptoethanol is assayed against substrate peptide […] in an incubation containing 50 mM Tris/HCl pH 7.5, 0.1 mM EGTA, 0.5 mM CaCl2, 0.3 μM calmodulin, 0.1% β-mereaptoethanol, 300 μM substrate peptide, 10 mM magnesium acetate and 0.05 mM [^33P-γ-ATP] (500-1000 cpm/pmole). EF2K (5-20 mU) diluted in 50 mM Hepes pH 6.6, 0.1% β-mercaptoethanol, 1 mg/ml BSA is assayed against a substrate peptide […] in an incubation containing 50 mM Hepes pH 6.6, 0.2 mM CaCl2, 0.3 μM Calmodulin, 0.05% b-mercaptoethanol, 300 μM substrate peptide, 10 mM magnesium acetate and 0.05 mM [^33P-γ-ATP] (500-1000 cpm/pmole).

For experiment [2], the target named is PKBb (Homo sapiens, UniProt P31751, S474D). The experiment is described as follows: PKBb 33P kinase assay. It counts as biochemical. As to conditions: read-out: PKBb activity as percentage of control without inhibitor. As for the experimental part:
as §1, §2
ΔPH-PKBbeta-S474D (5-20 mU diluted in 50 mM Tris pH 7.5, 0.1 mM EGTA, 0.1% β-mercaptoethanol, 1 mg/ml BSA) is assayed against a modified Crosstide peptide ([…]) in a final volume of 25.5 μl containing 50 mM Tris pH 7.5, 0.05% β-mercaptoethanol, 30 μM substrate peptide, 10 mM magnesium acetate and 0.05 mM [^33P- γATP] (50-1000 cpm/pmole) and incubated for 30 min at room temperature.

The target in experiment [3] is smMLCK (Homo sapiens, UniProt Q15746). As to the kind of experiment: smMLCK 33P kinase assay. The experiment is classed as biochemical. The following applies: read-out: smMLCK activity as percentage of control without inhibitor. As for the experimental part:
as §1
smMLCK (5-20 mU) diluted in 50 mM Hepes pH 7.5, 0.1 mM EGTA, 1 mg.ml BSA, 0.1% β-mercaptoethanol is assayed against substrate peptide […] in an incubation containing 50 mM Hepes pH 7.5, 0.1 mM EGTA, 5 mM CaCl2, 10 μM calmodulin, 300 μM substrate peptide, 10 mM magnesium acetate and 0.05 mM [^33P-γ-ATP] (500-1000 cpm/pmole).

Chain of PKBb (P31751 120-481 S474D limits assumed): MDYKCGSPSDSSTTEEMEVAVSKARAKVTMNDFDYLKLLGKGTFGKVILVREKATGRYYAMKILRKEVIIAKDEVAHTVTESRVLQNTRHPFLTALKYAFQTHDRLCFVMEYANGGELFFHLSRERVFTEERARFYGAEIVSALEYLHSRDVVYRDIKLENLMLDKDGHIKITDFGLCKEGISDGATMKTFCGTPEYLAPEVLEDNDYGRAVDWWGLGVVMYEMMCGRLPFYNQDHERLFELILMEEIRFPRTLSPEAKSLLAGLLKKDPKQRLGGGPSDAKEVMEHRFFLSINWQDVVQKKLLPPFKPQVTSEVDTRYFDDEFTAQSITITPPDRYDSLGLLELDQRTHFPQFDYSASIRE

With `COc1ccc2c3c([nH]c2c1)C(C)=NCC3` [Harmaline], the remaining activity at 1 µM in experiment [1] (inhibitor 1 μM) is 106%; in experiment [2] (inhibitor 1 μM), 97%; in experiment [3] (inhibitor 1 μM), 92%. For the same compound, the results for the remaining activity at 10 µM in experiment [1] (inhibitor 10 μM), in experiment [2] (inhibitor 10 μM) and in experiment [3] (inhibitor 10 μM) were 100%, 96% and 104%, respectively.

`CC1=NCCc2c1[nH]c1cc(O)ccc21` [Harmalol]: the remaining activity at 1 µM in experiment [1] (inhibitor 1 μM) was 97%; in experiment [2] (inhibitor 1 μM), 103%; in experiment [3] (inhibitor 1 μM), 76%. Further, the remaining activity at 10 µM in experiment [1] (inhibitor 10 μM) came to 85%; in experiment [2] (inhibitor 10 μM) it was 77%; in experiment [3] (inhibitor 10 μM), 71%.

`COc1ccc2c(c1)[nH]c1c(C)nccc12` [Harmine]: the remaining activity at 1 µM in experiment [1] was 102%; in experiment [2], 94%; in experiment [3] it was 88%. The remaining activity at 10 µM worked out at 101% in experiment [1], 101% in experiment [2] and 76% in experiment [3].

These data come from patent publication US20100063085A1, “METHOD OF TREATING LEARNING IMPAIRMENT IN DOWN'S SYNDROME SUBJECTS” (University Court of The University of Dundee, priority 2008, published 2010).
